Assay results taken from patent US6835728B2, “Drug combination for the treatment of depression and related disorders comprising mirtazapine” (Akzo Nobel N.V., priority 2001, dated 2004).
Marks after values point to notes of the source that are not given here.

Assays:
Format in all cases: in vivo
Sprague-Dawley rats [1] = test: Psychotropic drug class prediction by discriminant analysis of effects on rat sleep-waking behaviour; details: I.P.
Method: The effect profiles for these compounds at active doses were subjected to a discriminant analysis over these 6 psychoactive classes with placebo being added as an extra class. The resulting discriminant function was used to predict the pharmaco-therapeutic application area for gepirone alone and after co-administration with mirtazapine. Finally, the effect profiles of gepirone, mirtazapine, and the combination of gepirone and mirtazapine were calculated on the basis of vectors derived from the changes in sleep-wake organisation as shown in tables above. For each dose, the probability that the compound belongs to one of 7 defined classes was calculated.

Sprague-Dawley rats [2] = test: EEG sleep-waking behaviour test in rats; details: rat, I.P., change over control
Method: The aim of this test was to characterise the effects on rat sleep-waking behaviour of gepirone alone and of gepirone after co-administration with mirtazapine. To this end additionally the effects of mirtazapine on it own were investigated. Sleep-waking behaviour was analysed by using electroencephalographic (EEG) recordings, electromyographic (EMG) recordings, and by recording a movement index. On the basis of these signals sleep-waking behaviour was automatically classified per 2 second periods into 6 classes: active waking, passive waking, light sleep, deep sleep, intermediate stage sleep and REM sleep (Ruigt et al. A large scale automated system for rat sleep staging. I. Methodology and technical aspects. Electroenceph. and Clin. Neurophysiol.; 1989; 73:52-64). Each experiment is performed simultaneously on 32 adult male Sprague-Dawley rats (Harlan Olac, Bicester, UK, weighing […]), subdivided into four treatment groups. Throughout the whole experiment the animals stay in recording cages and are only taken out to be injected with vehicle or test compound(s). Each experiment contains three sessions. The first session (“test session”), commencing at 10:00 AM with a variable duration of 2-5 hours, serves as adaptation period and is used to assess the quality of the EEG and EMG signals recorded. The second and third sessions both start at 2:30 PM on two consecutive days and have a duration of 15.5 hours each. At the start of the second session all groups receive a vehicle treatment, at the start of the third session all groups receive their test compound(s). One of the treatment groups usually receives the vehicle treatment in both sessions to serve as a baseline for the other groups in the experiment. Separate experiments were done in which different single I.P. administered doses of either gepirone (1.0, 3.0, 10.0 mg/kg), or mirtazapine (2.2, 4.6, 10 mg/kg), or mirtazapine (2.2 mg/kg) in combination with gepirone (1.0, 3.0, 10 mg/kg) were tested. Gepirone was dissolved in 0.9% NaCl m/v in water (saline); mirtazapine was dissolved in 5% m/v Mulgofen (EL 719, GAF) in saline (=0.9% m/v NaCl in water). The drug-induced changes in sleep waking behaviours after I.P. administration of mirtazapine, gepirone, and mirtazapine in combination with gepirone are presented in Tables II, III and IV. […]

mice = test: Defensive (marble) burying test in mice; details: mouse, administered alone, S.C., pre-treatment 30 min
From the text: Marble burying has been developed and validated as a pre-clinical assay of potential anxiolytic activity (Andrews and Broekkamp (1993). Procedures to identify anxiolytic or anxiogenic agents. In Behavioural Neuroscience, ed. A Sahgal, pp. 37-54. IRL Press, Oxford). The marble burying test places a naive mouse into a novel environment containing 25 marbles (arranged on top of a saw dust surface). A reduction in the number of marbles buried by the mouse has been hypothesised to be an anxiolytic-like/anti-depressant-like effect.
A further series of three separate experiments were conducted during which three single doses of mirtazapine (0.3, 1, 3 mg.kg^−1) were co-administered S.C. with a range of S.C. gepirone doses (0, 0.1, 0.3, 1, 3 mg.kg^−1).

[3] = gepir 1.0 mg/kg, 0 to 3 hours after drug injection
[4] = gepir 1.0 mg/kg, 3 to 6 hours after drug injection
[5] = gepir 1.0 mg/kg, 9 to 15 hours after drug injection
[6] = gepir 3.0 mg/kg, 0 to 3 hours after drug injection
[7] = gepir 3.0 mg/kg, 3 to 6 hours after drug injection
[8] = gepir 3.0 mg/kg, 9 to 15 hours after drug injection
[9] = gepir 10.0 mg/kg, 0 to 3 hours after drug injection
[10] = gepir 10.0 mg/kg, 3 to 6 hours after drug injection
[11] = gepir 10.0 mg/kg, 9 to 15 hours after drug injection
[12] = mirt 2.2 mg/kg, 0 to 3 hours after drug injection
[13] = mirt 2.2 mg/kg, 3 to 6 hours after drug injection
[14] = mirt 2.2 mg/kg, 9 to 15 hours after drug injection

Compound: CC1(C)CC(=O)N(CCCCN2CCN(c3ncccn3)CC2)C(=O)C1 [Gepirone, gepirone]
- Probability score AC (anticonvulsant) (Sprague-Dawley rats [1]; gepirone 1.0 mg/kg): 7%
- Probability score AD (antidepressant) (Sprague-Dawley rats [1]; gepirone 1.0 mg/kg): 1%
- Probability score APS (antipsychotic) (Sprague-Dawley rats [1]; gepirone 1.0 mg/kg): 31%
- Probability score AXL (anxiolytic) (Sprague-Dawley rats [1]; gepirone 1.0 mg/kg): 6%
- Probability score HYP (hypnotic) (Sprague-Dawley rats [1]; gepirone 1.0 mg/kg): 20%
- Probability score PLAC (placebo) (Sprague-Dawley rats [1]; gepirone 1.0 mg/kg): 35%
- Probability score STIM (stimulant) (Sprague-Dawley rats [1]; gepirone 1.0 mg/kg): 0%
- Probability score AC (anticonvulsant) (Sprague-Dawley rats [1]; gepirone 3.0 mg/kg): 29%
- Probability score AD (antidepressant) (Sprague-Dawley rats [1]; gepirone 3.0 mg/kg): 28%
- Probability score APS (antipsychotic) (Sprague-Dawley rats [1]; gepirone 3.0 mg/kg): 14%
- Probability score AXL (anxiolytic) (Sprague-Dawley rats [1]; gepirone 3.0 mg/kg): 15%
- Probability score HYP (hypnotic) (Sprague-Dawley rats [1]; gepirone 3.0 mg/kg): 9%
- Probability score PLAC (placebo) (Sprague-Dawley rats [1]; gepirone 3.0 mg/kg): 6%
- Probability score STIM (stimulant) (Sprague-Dawley rats [1]; gepirone 3.0 mg/kg): 0%
- Probability score AC (anticonvulsant) (Sprague-Dawley rats [1]; gepirone 10.0 mg/kg): 6%
- Probability score AD (antidepressant) (Sprague-Dawley rats [1]; gepirone 10.0 mg/kg): 16%
- Probability score APS (antipsychotic) (Sprague-Dawley rats [1]; gepirone 10.0 mg/kg): 3%
- Probability score AXL (anxiolytic) (Sprague-Dawley rats [1]; gepirone 10.0 mg/kg): 63%
- Probability score HYP (hypnotic) (Sprague-Dawley rats [1]; gepirone 10.0 mg/kg): 0%
- Probability score PLAC (placebo) (Sprague-Dawley rats [1]; gepirone 10.0 mg/kg): 0%
- Probability score STIM (stimulant) (Sprague-Dawley rats [1]; gepirone 10.0 mg/kg): 12%
- Latency from time of injection to Deep sleep (Sprague-Dawley rats [2]; [3]): 24%
- Latency from time of injection to REM sleep (Sprague-Dawley rats [2]; [3]): 3%
- Median duration Active waking (Sprague-Dawley rats [2]; [3]): −58* %
- Median duration Deep sleep (Sprague-Dawley rats [2]; [3]): −2%
- Median duration Intermediate sleep (Sprague-Dawley rats [2]; [3]): −11%
- Median duration Light sleep (Sprague-Dawley rats [2]; [3]): 23%
- Median duration Passive waking (Sprague-Dawley rats [2]; [3]): 13%
- Median duration REM sleep (Sprague-Dawley rats [2]; [3]): 4%
- Median duration Active waking (Sprague-Dawley rats [2]; [4]): 6%
- Median duration Deep sleep (Sprague-Dawley rats [2]; [4]): −5%
- Median duration Intermediate sleep (Sprague-Dawley rats [2]; [4]): 32%
- Median duration Light sleep (Sprague-Dawley rats [2]; [4]): 8%
- Median duration Passive waking (Sprague-Dawley rats [2]; [4]): 5%
- Median duration REM sleep (Sprague-Dawley rats [2]; [4]): 20%
- Median duration Deep sleep (Sprague-Dawley rats [2]; [5]): 2%
- Median duration Intermediate sleep (Sprague-Dawley rats [2]; [5]): −2%
- Median duration Light sleep (Sprague-Dawley rats [2]; [5]): 14%
- Median duration Passive waking (Sprague-Dawley rats [2]; [5]): 38%
- Median duration REM sleep (Sprague-Dawley rats [2]; [5]): −12%
- Median duration Active waking (Sprague-Dawley rats [2]; gepir 1.0 mg/kg): −16%
- Latency from time of injection to Deep sleep (Sprague-Dawley rats [2]; [6]): 24%
- Latency from time of injection to REM sleep (Sprague-Dawley rats [2]; [6]): 360* %
- Median duration Active waking (Sprague-Dawley rats [2]; [6]): −8%
- Median duration Deep sleep (Sprague-Dawley rats [2]; [6]): −21%
- Median duration Intermediate sleep (Sprague-Dawley rats [2]; [6]): −76%
- Median duration Light sleep (Sprague-Dawley rats [2]; [6]): 8%
- Median duration Passive waking (Sprague-Dawley rats [2]; [6]): 156* %
- Median duration REM sleep (Sprague-Dawley rats [2]; [6]): −83* %
- Median duration Active waking (Sprague-Dawley rats [2]; [7]): 30%
- Median duration Deep sleep (Sprague-Dawley rats [2]; [7]): −6%
- Median duration Intermediate sleep (Sprague-Dawley rats [2]; [7]): 64* %
- Median duration Light sleep (Sprague-Dawley rats [2]; [7]): −2%
- Median duration Passive waking (Sprague-Dawley rats [2]; [7]): 13%
- Median duration REM sleep (Sprague-Dawley rats [2]; [7]): −3%
- Median duration Active waking (Sprague-Dawley rats [2]; [8]): −37* %
- Median duration Deep sleep (Sprague-Dawley rats [2]; [8]): −7%
- Median duration Intermediate sleep (Sprague-Dawley rats [2]; [8]): 36%
- Median duration Light sleep (Sprague-Dawley rats [2]; [8]): 67%
- Median duration Passive waking (Sprague-Dawley rats [2]; [8]): 55%
- Median duration REM sleep (Sprague-Dawley rats [2]; [8]): 40%
- Latency from time of injection to Deep sleep (Sprague-Dawley rats [2]; [9]): 268%
- Latency from time of injection to REM sleep (Sprague-Dawley rats [2]; [9]): 673* %
- Median duration Active waking (Sprague-Dawley rats [2]; [9]): 72%
- Median duration Deep sleep (Sprague-Dawley rats [2]; [9]): −63* %
- Median duration Intermediate sleep (Sprague-Dawley rats [2]; [9]): −100* %
- Median duration Light sleep (Sprague-Dawley rats [2]; [9]): −2%
- Median duration Passive waking (Sprague-Dawley rats [2]; [9]): 198%
- Median duration REM sleep (Sprague-Dawley rats [2]; [9]): −100* %
- Median duration Active waking (Sprague-Dawley rats [2]; [10]): −18%
- Median duration Deep sleep (Sprague-Dawley rats [2]; [10]): −19%
- Median duration Intermediate sleep (Sprague-Dawley rats [2]; [10]): 56%
- Median duration Light sleep (Sprague-Dawley rats [2]; [10]): 35%
- Median duration Passive waking (Sprague-Dawley rats [2]; [10]): −40%
- Median duration REM sleep (Sprague-Dawley rats [2]; [10]): −50* %
- Median duration Active waking (Sprague-Dawley rats [2]; [11]): −23* %
- Median duration Deep sleep (Sprague-Dawley rats [2]; [11]): −5%
- Median duration Intermediate sleep (Sprague-Dawley rats [2]; [11]): 108* %
- Median duration Light sleep (Sprague-Dawley rats [2]; [11]): 23%
- Median duration Passive waking (Sprague-Dawley rats [2]; [11]): 7%
- Median duration REM sleep (Sprague-Dawley rats [2]; [11]): 64%
- ED50 marble burying (mice): 2.16 mg/kg

Compound: CN1CCN2c3ncccc3Cc3ccccc3C2C1 (centres unmarked) [Mirtazapine, mirtazapine]
- Probability score AC (anticonvulsant) (Sprague-Dawley rats [1]; mirtazapine 2.2 mg/kg): 9%
- Probability score AD (antidepressant) (Sprague-Dawley rats [1]; mirtazapine 2.2 mg/kg): 22%
- Probability score APS (antipsychotic) (Sprague-Dawley rats [1]; mirtazapine 2.2 mg/kg): 3%
- Probability score AXL (anxiolytic) (Sprague-Dawley rats [1]; mirtazapine 2.2 mg/kg): 20%
- Probability score HYP (hypnotic) (Sprague-Dawley rats [1]; mirtazapine 2.2 mg/kg): 29%
- Probability score PLAC (placebo) (Sprague-Dawley rats [1]; mirtazapine 2.2 mg/kg): 16%
- Probability score STIM (stimulant) (Sprague-Dawley rats [1]; mirtazapine 2.2 mg/kg): 0%
- Latency from time of injection to Deep sleep (Sprague-Dawley rats [2]; [12]): −36%
- Latency from time of injection to REM sleep (Sprague-Dawley rats [2]; [12]): 27%
- Median duration Active waking (Sprague-Dawley rats [2]; [12]): 19%
- Median duration Deep sleep (Sprague-Dawley rats [2]; [12]): 13%
- Median duration Intermediate sleep (Sprague-Dawley rats [2]; [12]): −85* %
- Median duration Light sleep (Sprague-Dawley rats [2]; [12]): 7%
- Median duration Passive waking (Sprague-Dawley rats [2]; [12]): −5%
- Median duration REM sleep (Sprague-Dawley rats [2]; [12]): −88* %
- Median duration Active waking (Sprague-Dawley rats [2]; [13]): 68%
- Median duration Deep sleep (Sprague-Dawley rats [2]; [13]): 19%
- Median duration Intermediate sleep (Sprague-Dawley rats [2]; [13]): −74* %
- Median duration Light sleep (Sprague-Dawley rats [2]; [13]): 10%
- Median duration Passive waking (Sprague-Dawley rats [2]; [13]): 17%
- Median duration REM sleep (Sprague-Dawley rats [2]; [13]): −52* %
- Median duration Active waking (Sprague-Dawley rats [2]; [14]): −16%
- Median duration Deep sleep (Sprague-Dawley rats [2]; [14]): 20%
- Median duration Light sleep (Sprague-Dawley rats [2]; [14]): 27%
- Median duration Passive waking (Sprague-Dawley rats [2]; [14]): −8%
- Median duration REM sleep (Sprague-Dawley rats [2]; [14]): 22%
- Median duration Intermediate sleep (Sprague-Dawley rats [2]; mirt 2.2 mg/kg): 111%
- ED50 marble burying (mice): 5.5 mg/kg
